Tests used:
Type in all cases: cell-based
ASIC3 [1] = target: T1, ASIC3 (Rattus norvegicus, UniProt O35240); experiment: whole-cell patch clamp
T1 sequence (O35240 1-533): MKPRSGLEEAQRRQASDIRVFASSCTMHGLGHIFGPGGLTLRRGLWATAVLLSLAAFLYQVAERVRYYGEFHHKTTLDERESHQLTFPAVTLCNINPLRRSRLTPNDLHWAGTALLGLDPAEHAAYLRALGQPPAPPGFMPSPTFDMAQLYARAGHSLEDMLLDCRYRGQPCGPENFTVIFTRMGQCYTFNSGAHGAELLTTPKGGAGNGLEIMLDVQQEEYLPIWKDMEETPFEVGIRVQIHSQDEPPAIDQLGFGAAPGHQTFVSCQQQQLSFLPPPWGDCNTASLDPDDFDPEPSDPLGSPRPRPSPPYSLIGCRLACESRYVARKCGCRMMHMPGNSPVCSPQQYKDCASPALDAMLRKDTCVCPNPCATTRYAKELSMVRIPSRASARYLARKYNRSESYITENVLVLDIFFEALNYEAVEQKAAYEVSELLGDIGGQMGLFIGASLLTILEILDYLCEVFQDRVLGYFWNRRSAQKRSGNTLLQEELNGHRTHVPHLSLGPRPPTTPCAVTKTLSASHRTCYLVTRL

ASIC3 [2] = target: T1, ASIC3; experiment: whole-cell patch clamp, shift of activation pH0.[…]
ASIC3 [3] = target: T1, ASIC3; experiment: whole-cell patch clamp, concentration dependence of shift of activation pH0.[…]

SMILES: CC/C=C\C/C=C\C/C=C\C/C=C\C/C=C\CCCCCC(=O)O [DPA, docosapentaenoic acid]
- whole-cell patch clamp; pH0.5 shift at 10 μM and concentration dependence at pH (ASIC3 [1]): 0.27 ΔpH0.5 at 10 µM

SMILES: CCCCC/C=C\C/C=C\C/C=C\C/C=C\CCCC(=O)NCC(=O)O [AG, arachidonyl glycine]
- EC50 (ASIC3 [2]): 5.4 ± 1.12 µM

SMILES: CCCCC/C=C\C/C=C\C/C=C\C/C=C\CCCC(=O)O [AA, arachidonic acid]
- EC50 (ASIC3 [3]): 11 ± 2 µM
